Experimental data as given in patent EP1156787B1, “OXADIAZOLE COMPOUNDS AND COMPOSITIONS FOR DELIVERING ACTIVE AGENTS” (priority 1999, dated 2000).

What was measured:
[1] = set-up: species or system Male Sprague-Dawley rats; settings: rat, in vivo, po, 100 mg/kg
Protocol: Oral gavage (PO) and/or intracolonic (IC) dosing solutions of delivery agent compound and human parathyroid hormone residues 1-34 (PTH) in water were prepared. A solution of the compound was made either with the sodium salt of the compound or by converting the free acid to its sodium salt. Typically, a solution of the compound was prepared in water and stirred, adding one equivalent of sodium hydroxide (1.0 N) when making the sodium salt. The final dosing solutions were prepared by mixing the compound solution with a PTH stock solution (typically having a concentration of 5 mg PTH/ml) and diluting to the desired volume (usually 3.0 ml). The final compound, PTH and volume dose amounts are listed below in Table 4.
The typical dosing and sampling protocols were as follows. Male Sprague-Dawley rats weighing between 200-250g were fasted for 24 hours and administered ketamine (44 mg/kg) and chlorpromazine (1.5 mg/kg) 15 minutes prior to dosing. A dosing group of five rats was administered one of the dosing solutions. For oral gavage (PO), an 11cm Rusch 8 French catheter was adapted to a 1 ml syringe with a pipette tip. The syringe was filled with dosing solution by drawing the solution through the catheter, which was then wiped dry. The catheter was placed down the esophagus leaving 1 cm of tubing past the rat's incisors. Solution was administered by pressing the syringe plunger. For intracolonic (IC) dosing, a 7.5 cm Rusch catheter tube (French 8 or 6) was adapted to a syringe with an Eppendorf pipette tip. The syringe was filled with the dosing solution by drawing the solution through the catheter tube. The catheter tube was wiped dry. K-Y jelly was applied to the tip, avoiding contact with the eye of the tube, and the tube was inserted into the colon through the anus until the tube was no longer visible. The solution was injected by pressing the syringe plunger, and the tube was removed.
Blood samples were collected serially from the tail artery, typically 0, 15, 30, 45, 60 and 90 minutes after oral administration and 0, 10, 20, 30, 60 and 90 minutes after IC administration. Serum PTH concentrations were quantified by a PTH radioimmunoassay kit (Kit # RIK 6101 from Peninsula Laboratories, Inc., San Carlos, CA). Previous studies indicated baseline values of about zero. Results from the five rats in each group were averaged for each time point. The maximum is reported below in Table 4.

[2] = Intracolonic delivery of heparin with delivery agent compound; heparin activity by activated partial thromboplastin time (APTT); assay type: in vivo, Male Sprague-Dawley rats; settings: rats, intracolonic (IC); compound 50 mg/kg, heparin 25 mg/kg, volume 1 ml/kg; maximum of time-point means of five rats; baseline about 20 sec
Protocol: Oral gavage (PO) and/or intracolonic (IC) dosing solutions containing a delivery agent compound and heparin sodium USP in 25% aqueous propylene glycol were prepared. Either the sodium salt of the compound was used or the free acid was converted to the sodium salt with one equivalent of sodium hydroxide. Typically, delivery agent compound and heparin (about 166-182 IU/mg) were mixed by vortex as dry powders. This dry mixture was dissolved in 25% v/v aqueous propylene glycol, vortexed and placed in a sonicator (about 37 °C). The pH was adjusted to about 7 (6.5 to 8.5) with aqueous sodium hydroxide (2N). The dosing solution was sonicated to produce a clear solution. The final volume was adjusted to about 3.0 ml. The final delivery agent compound dose, heparin dose and volume dose amounts are listed below in Table 2.
The typical dosing and sampling protocols were as follows. […]
Citrated blood samples were collected by cardiac puncture following the administration of ketamine (88 mg/kg), typically at 0.25, 0.5, 1.0 and 1.5 hours after administration. Heparin activity was determined by utilizing the activated partial thromboplastin time (APTT) according to the method of Henry, J.B., Clinical Diagnosis and Management by Laboratory Methods, Philadelphia, PA, W.B. Saunders (1979). […]

[3] = set-up: species or system Male Sprague-Dawley rats; settings: rat, in vivo, po, 150 mg/kg
Protocol: Oral dosing (PO) compositions of delivery agent compound and salmon calcitonin (sCT) in water were prepared. Typically, 450 mg of compound was added to 2.0 ml of water. Either the sodium salt of the compound was used or the free acid was converted to the sodium salt by stirring the resultant solution and adding one equivalent of sodium hydroxide (1.0 N) and diluting with water. The solution was vortexed, then heated (about 37°C) and sonicated. The pH was adjusted to about 7 (6.5 to 8.5) with sodium hydroxide or hydrochloric acid. 90 µg sCT from a stock solution was added to the solution. Water was then added to bring the total volume to about 3.0 ml (varies depending on solubility of the delivery agent compound) and vortexed. The final delivery agent compound dose, sCT dose and volume dose amounts are listed below in Table 1.
The typical dosing and sampling protocols were as follows. Male Sprague-Dawley rats weighing between 200-250g were fasted for 24 hours and administered ketamine (44 mg/kg) and chlorpromazine (1.5 mg/kg) 15 minutes prior to dosing. A dosing group of five rats was administered one of the dosing solutions. For oral dosing, an 11 cm Rusch 8 French catheter was adapted to a 1 ml syringe with a pipette tip. The syringe was filled with dosing solution by drawing the solution through the catheter, which was then wiped dry. The catheter was placed down the esophagus leaving 1 cm of tubing past the incisors. Solution was administered by pressing the syringe plunger.
Blood samples were collected serially from the tail artery, typically at 0, 10, 20, 30, 60 and 90 minutes after administration. Serum sCT was determined by testing with an EIA kit (Kit # EIAS-6003 from Peninsula Laboratories, Inc., San Carlos, CA). Numbers were adjusted according to baseline values obtained at 0 minutes. The limit of the assay is 80 pg/ml. The results from the five rats in each dosing group were averaged for each time point. The maximum is reported below in Table 1.

| SMILES | Mean Peak Serum [PTH] (pg/ml) ± SD [1] [pg/mL] | Mean Peak APTT (sec) ± SD [2] [s] | AUC [1] | Mean Peak Serum Set (pg/ml ± SD)(SE) [3] |
| --- | --- | --- | --- | --- |
| O=C(O)CCCCCCc1nnc(-c2ccccc2O)o1 [Compound 2] | 498.55 ± 237.83 | 52.8 ± 31.9 | – | – |
| O=C(O)CCCCc1nnc(-c2ccccc2O)o1 [Compound 3] | 57.88 | – | 2717.51 | – |
| O=C(O)CCCCCCCc1nnc(-c2ccccc2O)o1 [Compound 4] | 330.74 ± 410.57 | – | 6852.12 | – |
| O=C(O)CCCCCCc1nnc(-c2cc(Cl)ccc2O)o1 [Compound 5] | 22.91 | – | 509.20 | 393 ± 431 (193) pg/ml |
| O=C(O)CCCCCCc1nnc(-c2cc(Cl)cc(Cl)c2O)o1 [Compound 6] | 14.44 | – | 716.96 | 306 ± 339 (152) pg/ml |
| Cc1ccc(-c2nnc(CCCCCCC(=O)O)o2)c(O)c1 [Compound 7] | 138.9 ± 118.46 | – | 4790.10 | – |
| O=C(O)CCCCCCc1nnc(-c2ccccc2)o1 [Compound 10] | – | – | – | 37 ± 55 pg/mL |
